In PubChem BioAssay AID248 (DTP/NCI, 2004):
Toxic doses and inconclusive results are not listed. Cut-off read from the data, not from the text of the source: active = T/C of 150% or more; inactive = T/C below 125%.

Test system: L1210 leukemia ip in BDF1 mice, survival T/C
Assay: NCI In Vivo Anticancer Drug Screen. Data for tumor model L1210 Leukemia (intraperitoneal) in B6D2F1 (BDF1) mice
Details: endpoint: mean survival time, higher = longer survival
Outline: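 Mice bearing the transplanted tumor received compound or vehicle. Survival of the treated group was divided by that of the vehicle-treated control group to give the ratio.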

[1] = dose: 100.0 mg/kg/injection, schedule: Q01DX009 (ip), vehicle: saline with Tween-80
[2] = dose: 100.0 mg/kg/injection, schedule: Q04DX003 (ip), vehicle: saline with Tween-80
[3] = dose: 200.0 mg/kg/injection, schedule: Q04DX003 (ip), vehicle: saline with Tween-80
[4] = dose: 100.0 mg/kg/injection, schedule: Q01DX001 (ip), vehicle: carboxymethylcellulose (CMC)
[5] = dose: 200.0 mg/kg/injection, schedule: Q01DX001 (ip), vehicle: carboxymethylcellulose (CMC)
[6] = dose: 400.0 mg/kg/injection, schedule: Q01DX001 (ip), vehicle: carboxymethylcellulose (CMC)
[7] = dose: 12.5 mg/kg/injection, schedule: Q01DX001 (ip), vehicle: saline with Tween-80
[8] = dose: 100.0 mg/kg/injection, schedule: Q01DX001 (ip), vehicle: saline
[9] = dose: 200.0 mg/kg/injection, schedule: Q01DX001 (ip), vehicle: saline
[10] = dose: 100.0 mg/kg/injection, schedule: Q04DX003 (ip), vehicle: Klucel (hydroxypropylcellulose) (HPC)
[11] = dose: 200.0 mg/kg/injection, schedule: Q04DX003 (ip), vehicle: Klucel (hydroxypropylcellulose) (HPC)
[12] = dose: 400.0 mg/kg/injection, schedule: Q04DX003 (ip), vehicle: Klucel (hydroxypropylcellulose) (HPC)
[13] = dose: 100.0 mg/kg/injection, schedule: Q04DX003 (ip), vehicle: saline
[14] = dose: 200.0 mg/kg/injection, schedule: Q04DX003 (ip), vehicle: saline
[15] = dose: 400.0 mg/kg/injection, schedule: Q04DX003 (ip), vehicle: saline
[16] = dose: 400.0 mg/kg/injection, schedule: Q04DX003 (ip), vehicle: saline with Tween-80
[17] = dose: 200.0 mg/kg/injection, schedule: Q01DX009 (ip), vehicle: saline with Tween-80
[18] = dose: 400.0 mg/kg/injection, schedule: Q01DX009 (ip), vehicle: saline with Tween-80
[19] = dose: 100.0 mg/kg/injection, schedule: Q01DX009 (ip), vehicle: saline sonified
[20] = dose: 200.0 mg/kg/injection, schedule: Q01DX009 (ip), vehicle: saline sonified
[21] = dose: 400.0 mg/kg/injection, schedule: Q01DX009 (ip), vehicle: saline sonified

Measured: T/C

CCCCNCCC(SS)c1ccc(Cl)cc1 (centres undefined)
inactive: dose: 50.0 mg/kg/injection, schedule: Q01DX009 (ip), vehicle: saline with Tween-80 106 % of control | [1] 92 % of control | [2] 88 % of control | [3] 93 % of control

Nc1nc(N)nc(Cc2nc(N)nc(N)n2)n1
inactive: dose: 50.0 mg/kg/injection, schedule: Q01DX001 (ip), vehicle: carboxymethylcellulose (CMC) 90 % of control | [4] 87 % of control | [5] 92 % of control | [6] 95 % of control

CC1COCC(C)N1C1=C(Cl)C(=O)c2ccccc2C1=O (centres undefined)
inactive: dose: 12.5 mg/kg/injection, schedule: Q01DX001 (ip), vehicle: carboxymethylcellulose (CMC) 98 % of control | dose: 25.0 mg/kg/injection, schedule: Q01DX001 (ip), vehicle: carboxymethylcellulose (CMC) 98 % of control

C[N+](C)(C)Cc1c[nH]c2ccsc12
inactive: [7] 107 % of control

COC1=C(Nc2ccc(C)cc2)C(=O)C(OC)=C(Nc2ccc(C)cc2)C1=O
inactive: dose: 50.0 mg/kg/injection, schedule: Q01DX001 (ip), vehicle: saline 98 % of control | [8] 93 % of control | [9] 95 % of control

c1ccc(N=C2C3CCN(CC3)C2C(c2ccccc2)c2ccccc2)cc1 (centres undefined)
inactive: [10] 97 % of control | [11] 94 % of control | [12] 95 % of control

O=C(C1C2CCC(CC2)C1C(=O)N1CCCCC1)N1CCCCC1 (centres undefined)
inactive: [13] 108 % of control | [14] 100 % of control | [15] 100 % of control

OC1CCC2CCC(O)CC2C1 (centres undefined)
inactive: [2] 105 % of control | [3] 105 % of control | [16] 92 % of control

Nc1nc(N)nc(CCN2CCCCC2)n1
inactive: dose: 6.25 mg/kg/injection, schedule: Q01DX001 (ip), vehicle: saline with Tween-80 94 % of control | [7] 102 % of control | dose: 25.0 mg/kg/injection, schedule: Q01DX001 (ip), vehicle: saline with Tween-80 102 % of control

O=C1C=CC(=O)N1c1ccc(O)cc1
inactive: dose: 1.25 mg/kg/injection, schedule: Q01DX009 (ip), vehicle: Klucel (hydroxypropylcellulose) (HPC) 105 % of control | dose: 2.5 mg/kg/injection, schedule: Q01DX009 (ip), vehicle: Klucel (hydroxypropylcellulose) (HPC) 107 % of control | dose: 2.5 mg/kg/injection, schedule: Q04DX003 (ip), vehicle: Klucel (hydroxypropylcellulose) (HPC) 96 % of control | dose: 5.0 mg/kg/injection, schedule: Q01DX009 (ip), vehicle: Klucel (hydroxypropylcellulose) (HPC) 102 % of control | dose: 5.0 mg/kg/injection, schedule: Q04DX003 (ip), vehicle: Klucel (hydroxypropylcellulose) (HPC) 95 % of control

O=[N+]([O-])c1ccc2c(c1)c(-c1cccc(-c3ccccc3)c1)nc1ccccc12
inactive: [2] 95 % of control | [3] 88 % of control

CN(NCc1ccccc1)C(=N)N
inactive: dose: 25.0 mg/kg/injection, schedule: Q04DX003 (ip), vehicle: saline 106 % of control | dose: 50.0 mg/kg/injection, schedule: Q04DX003 (ip), vehicle: saline 109 % of control | [8] 107 % of control | [13] 109 % of control

COc1cc(Cl)ccc1NC(=O)N(C)C1CCCCC1
inactive: dose: 100.0 mg/kg/injection, schedule: Q01DX009 (ip), vehicle: Klucel (hydroxypropylcellulose) (HPC) 104 % of control | dose: 200.0 mg/kg/injection, schedule: Q01DX009 (ip), vehicle: Klucel (hydroxypropylcellulose) (HPC) 104 % of control | dose: 400.0 mg/kg/injection, schedule: Q01DX009 (ip), vehicle: Klucel (hydroxypropylcellulose) (HPC) 95 % of control

COc1cc(O)c(C(C)=O)c(OC)c1
inactive: [1] 98 % of control | [2] 101 % of control | [17] 96 % of control | [3] 95 % of control | [18] 90 % of control | [16] 93 % of control

O=C1OC(c2ccccc2)CC1N1CCOCC1 (centres undefined)
inactive: [19] 106 % of control | [10] 98 % of control | [20] 99 % of control | [11] 104 % of control | [21] 97 % of control | [12] 98 % of control

Cc1ccc(S(=O)(=O)N2c3ccccc3-c3ccccc3C(=O)C2Br)cc1 (centres undefined)
inactive: [4] 105 % of control | [5] 105 % of control | [6] 124 % of control

COP1(=O)OCC(C)O1 (centres undefined)
inactive: [8] 113 % of control | [9] 102 % of control | dose: 400.0 mg/kg/injection, schedule: Q01DX001 (ip), vehicle: saline 94 % of control

O=C(CCN1CC1)N1CCOCC1
inactive: [13] 108 % of control | [14] 100 % of control | [15] 113 % of control

Cc1ccc(S(=O)(=O)N(C)c2ccc(C#N)cc2F)cc1
inactive: [13] 102 % of control | [14] 98 % of control | [15] 102 % of control

CCOc1ccc(/C=C/[N+](=O)[O-])cc1
inactive: dose: 12.5 mg/kg/injection, schedule: Q01DX009 (ip), vehicle: Klucel (hydroxypropylcellulose) (HPC) 96 % of control | dose: 12.5 mg/kg/injection, schedule: Q04DX003 (ip), vehicle: Klucel (hydroxypropylcellulose) (HPC) 95 % of control | dose: 25.0 mg/kg/injection, schedule: Q01DX009 (ip), vehicle: Klucel (hydroxypropylcellulose) (HPC) 97 % of control | dose: 25.0 mg/kg/injection, schedule: Q04DX003 (ip), vehicle: Klucel (hydroxypropylcellulose) (HPC) 114 % of control | dose: 50.0 mg/kg/injection, schedule: Q01DX009 (ip), vehicle: Klucel (hydroxypropylcellulose) (HPC) 105 % of control | dose: 50.0 mg/kg/injection, schedule: Q04DX003 (ip), vehicle: Klucel (hydroxypropylcellulose) (HPC) 101 % of control | [10] 94 % of control | [11] 95 % of control

Cc1cn(C2CC(O)C(COC(c3ccccc3)(c3ccccc3)c3ccccc3)O2)c(=O)[nH]c1=O (centres undefined)
inactive: dose: 100.0 mg/kg/injection, schedule: Q01DX005 (ip), vehicle: saline 104 % of control | dose: 200.0 mg/kg/injection, schedule: Q01DX005 (ip), vehicle: saline 96 % of control

O=C(Nc1ccc2ccccc2c1)c1ccccc1
inactive: [19] 104 % of control | [10] 97 % of control | [20] 96 % of control | [11] 93 % of control | [21] 93 % of control | [12] 92 % of control

CCCN(CCC)CC(O)c1ccc2cccc3c2c1CC3 (centres undefined)
inactive: dose: 75.0 mg/kg/injection, schedule: Q01DX001 (ip), vehicle: saline 104 % of control | dose: 150.0 mg/kg/injection, schedule: Q01DX001 (ip), vehicle: saline 98 % of control | dose: 300.0 mg/kg/injection, schedule: Q01DX001 (ip), vehicle: saline 95 % of control

N/C(=N/N=C/c1ccc(O)cc1)N[N+](=O)[O-]
inactive: [1] 105 % of control | [17] 89 % of control | [18] 90 % of control

CC(C)(C)NC(=O)CCC1CC(=O)NC12CCCCC2 (centres undefined)
inactive: dose: 75.0 mg/kg/injection, schedule: Q01DX009 (ip), vehicle: Klucel (hydroxypropylcellulose) (HPC) 90 % of control | dose: 150.0 mg/kg/injection, schedule: Q01DX009 (ip), vehicle: Klucel (hydroxypropylcellulose) (HPC) 91 % of control | dose: 300.0 mg/kg/injection, schedule: Q01DX009 (ip), vehicle: Klucel (hydroxypropylcellulose) (HPC) 96 % of control
